The values below come from US11446294B2, “Non-platinum-based anti-cancer compounds for use in targeted chemotherapy” (priority 2013, dated 2022).

“Also recorded” adds a separate entry of the source.

Data set [1] relates to cisplatin-resistant human ovarian cancer (NIH:OVCAR-3, HTB-161) cells. The data set can be described thus: MTT cell viability, HTB-161. To be noted: HTB-161, 96-hr treatment. The class given is cell-based. Here is the method: (§1) The complete growth media for ME-180, NIH:OVCAR-3, A549 and MDA-MB-231 cells were the ATCC-formulated McCoy's 5A Medium supplemented with 10% FBS, RPMI 1640 medium with 20%, F-12K medium with 10% FBS, and L-15 Medium (Leibovitz) with 10% FBS, respectively.
(§2) The MTT assay of cell viability was then conducted.

Data set [2] deals with human breast cancer (MDA-MB-231) cells. As to the kind of experiment: MTT cell viability, MDA-MB-231. It counts as cell-based. The following applies: MDA-MB-231, 96-hr treatment. How it is done: as §1, §2
For data set [3], the system named is human normal cells (GM05757). The data set can be described thus: MTT cell viability, human normal cells (toxicity). To be noted: for toxicity to human normal cells (cell survival rate): GM05757, 96-hr treatment, up to 200 μM.
Experimental: A human skin diploid fibroblast (GM05757 cell line) was obtained from the Coriell Cell Repository directly. Fetal bovine serum (FBS) was obtained from Hyclone Laboratories (UT, USA). The GM05757 normal cells were cultivated with MEM (Hyclone) supplemented with 10% FBS, 100 units/mL penicillin G and 100 μg/mL streptomycin (Hyclone). The cells were maintained at 37° C. in a humidified atmosphere containing 5% CO2.
The toxic effects of NPBs on cell viability were determined by the 3-[4,5-dimethylthiazol-2-yl]-2,5-diphenyl tetrazoliumbromide (MTT) assay. Cells were cultured in 96-well plates (5×10^3 cells/well) for 24 h. The culture medium was replaced by fresh culture medium and incubated for 72 or 96 h with varying drug concentrations. The MTT assay of cell viability was then conducted. Briefly, 100 μl new medium without phenol red containing 1.2 mM MTT (sigma) (i.e., adding 10 μl 12 mM MTT stock solution in PBS) were added to each well and incubated for 4 h. The medium was then removed, and the formazan crystals solubilized by 100 μL/well DMSO (or alternatively by 100 μl/well SDS and incubated for another 4 h). The surviving fraction was determined by measuring the absorbance at 540 nm (570 nm for SDS solubilization) using a Multiskan Spectrum UV/Vis microplate reader (Thermo Scientific), which is directly proportional to the number of viable cells.
For data set [4], the system named is human cervical cancer (ME-180) cells. The data set can be described thus: MTT cell viability, ME-180. The class given is cell-based. To be noted: ME-180, 96-hr treatment. Here is the method:
as §1, §2

Data set [5] has as its system human lung cancer (A549) cells. The data set can be described thus: MTT cell viability, A549. The class given is cell-based. How it is done: as §1, §2
For data set [6], the system named is human cervical cancer (HeLa) cells. The data set can be described thus: MTT cell viability, HeLa. It counts as cell-based. To be noted: 96-hr treatment.
Data set [7] is described as follows: fs-TRLS observation of DET reaction with a weakly-bound electron. To be noted: pump 350 nm, probe 400 nm; for DET reaction with weakly-bound electron ewb−: identical conditions. The source says: Femtosecond (fs) time-resolved laser spectroscopy (fs-TRLS) is the most versatile and powerful technique for real-time observation of molecular reactions. It uses laser flashes of such short duration that we are down to the time scale on which the reactions actually happen—femtoseconds (fs) (1 fs=10^−15 seconds). […] For the latter, briefly our fs laser amplifier system (Spectra-Physics, Spitfire) produced laser pulses with a pulse width of 100-120 fs at a repetition rate of 500 Hz. A intense pump pulse at 350 nm was used to generate a weakly-bound electron (ewb^−) by 2-photon excitation of a H2O molecule into a higher energy state H2O* that then ionizes to produce an ewb^−; a probe pulse at 400 nm coming at certain delay was used to monitor the DET reaction with the electron by detecting transient absorbance of the reaction intermediate anion state.

Data set [8] concerns human cervical cancer (ME-180) cells. The data set can be described thus: γH2AX DNA damage assay (DNA double-strand breaks). It counts as cell-based. The following applies: ME-180, 12 h treatment. How it is done: The γH2AX DNA damage assay (Invitrogen) was used to detect DSBs of genomic DNA in cancer cells. The phosphorylated H2AX foci are a biomarker of DNA DSB. DNA DSBs are measured by specific antibody-based detection of phosphorylated H2AX (γH2AX) in the nucleus. Briefly, the human cervical cancer (ME-180) cells were treated with different concentrations of compound B for 12 h under the cell culture conditions described above. Then following the detailed experimental procedures described in the Protocol provided by the manufacturer, we performed the HCS DNA Damage Assay of the treated cells. The images of cells were acquired with a Nikon Eclipse TS100 fluorescence microscope; quantitative analyses of activated γ-H2AX (DNA DBS yield) in the cells were performed using an Image J software.

Data set [9] is described as follows: In vivo toxicity in SCID mice. Here is the method:
The two groups (five 6-8 week SCID mice/group) in the experiment were: (1) control article (in 5% EtOH/medium); and (2) Compound B 7 mg/kg in 5% EtOH/medium, as shown in Table 2. Compound B was injected IP every day for 5 days.
(§3) 6-8 week SCID mice were used in this study; Compound B as an exemplary NPB was dissolved in 5% EtOH: 95% cell culture medium (≈1:20).
6-8 week SCID Mice were individually weighed and injected intraperitoneally (IP) according to body weight for an injection concentration as outlined in the study group table above. Compound B was administered by IP injection into mice at 0, and 7 mg/kg daily for 5 days. The injection volume was based on 200 μL per 20 g mouse. The skin surface was wiped down with 70% isopropyl alcohol to clean the injection site.
The overall drug toxicity in mice was observed by a survival assay and body weight measurements, and the acute drug toxicity was measured by blood collection and histology. The hepatotoxicity (ALT, ALP, total bilirubin), nephrotoxicity (blood urea, creatinine), and electrolytes (Na, K, Cl) were analyzed by biochemical methods or HPLC-mass spectroscopy. […] Blood samples were collected from the saphenous vein at various time points after drug injection. At the end of the study, whole organs were harvested in order to assess liver, and kidney toxicity.
All animals were observed post administration, and at least once a day, more if deemed necessary, during the pre-treatment and treatment periods for mortality and morbidity. In particular, animals were monitored for signs of ill health such as body weight loss, change in appetite, behavior changes such as altered gait, lethargy and gross manifestations of stress.

Data set [10] concerns human cervical cancer (ME-180) cells. As to the kind of experiment: CellEvent Caspase-3/7 apoptosis assay by fluorescence microscopy. It counts as cell-based. To be noted: 48 h. The text has this: Human cervical cancer (ME-180) cells were purchased from the American Type Culture Collection (ATCC).
The CellEvent™ Caspase-3/7 Green Detection Kit (Invitrogen) was used for the detection of activated caspases and apoptotic cells following the vendor's protocol. This kit provides a […] specific for caspase-3 and -7; the cells show green fluorescence for activated caspase-3 and -7. The reagent consists of a four amino acid peptide (DEVD) conjugated to a nucleic acid binding dye. This cell-permeant substrate is intrinsically non-fluorescent, because the DEVD peptide inhibits the ability of the dye to bind to DNA. After activation of caspase-3 or caspase-7 in apoptotic cells, the DEVD peptide is cleaved, enabling the dye to bind to DNA and produce green fluorescence. Briefly, to use the CellEvent™ Caspase-3/7 Green Detection Reagent, add the substrate to the cells in complete growth medium, incubate for 30 minutes, and image. […] Because the cleaved reagent labels nuclei of caspase 3/7-positive cells, this stain can also provide information on nuclear morphology, including condensed nuclei typical of late-stage apoptosis. ME-180 cells were grown to 60% confluence and then treated with 0-200 μM compound B for 48 h. The fluorescence was detected with a Nikon Eclipse TS100 microscope. Images were captured with an attached camera.

Data set [11] has as its system human cervical cancer (ME-180) tumor. The data set can be described thus: Xenograft mouse model of human cervical cancer (ME-180). The class given is in vivo, SCID mice. To be noted: 7 mg/kg daily for 5 days, IP. How it is done:
The two groups in the experiment were: (1) control article (5% EtOH/medium); (2) Compound B at 7 mg/kg in 5% EtOH/medium daily for 5 days, as shown in Table 1.
as §3
ME-180 (human cervical cancer) cells were cultured in the ATCC-formulated McCoy's 5A Medium supplemented with 10% FBS. […] The cells were rinsed with PBS, trypsined for detachment from the bottom of the flask, mixed with fresh growth medium, and centrifuged to remove the supernatant. The cells were re-suspend with fresh medium to appropriate concentration for s.c. injection into the mice. Injection volume was 50 μl (1.5×10^6 cells) per animal.
ME-180 tumour cells were subcutaneously into female SCID mice (age 6-8 weeks) in a volume of 50 μL into the left flank using a 27-gauge needle. This was established as a subcutaneous (SC) xenograft mouse model of human cervical cancer.
Mice were individually weighed and injected intraperitoneally according to body weight for an injection concentration as outlined in the study group table above. The injection volume was based on 200 μL per 20 g mouse. The skin surface was wiped down with 70% isopropyl alcohol to clean the injection site.
Tumor size was measured as a function of time to assess tumor growth delay associated with treatment using slide caliper. […]
(In general: In xenograft studies the graft and the host belong to different species.)

[12] abbreviates: mouse, in vivo, ip, 7 mg/kg/day.

Consider `Nc1cc(Cl)c(Cl)cc1N` [Compound A, 4,5-dichloro-1,2-phenylenediamine], for which the “cell survival rate (killing of cisplatin-resistant cancer cells)” value in data set [1] is reported as “significant killing”. Also, the “cell survival rate (killing of cancer cells)” value in [2] is “significant killing”; in data set [4], “significant killing”; in data set [5] (A549, 96 hr treatment) it was “significant killing”; in data set [6] it was “significant killing”. Besides, the “toxicity to human normal cells (cell survival rate)” value (shortened to “toxicity to human normal cells”) in data set [3] was “essentially no toxicity; also recorded: little toxicity”.
`O=c1[nH]c(=O)n([C@H]2C[C@H](O)[C@@H](CO)O2)cc1I` [IdU, iododeoxyuridine]: the “DET reaction with weakly-bound electron ewb−” value in data set [7] was “no DET reactions detected; also recorded: negligible; also recorded: no DET reaction”.
Consider “bromo-(1,2-)diamino-benzene [Compound D]”, for which, in [1], the “cell survival rate (killing of cisplatin-resistant cancer cells)” value is “significant killing”. Also, the “cell survival rate (killing of cancer cells)” value is reported as “significant killing” in data set [2]; “significant killing” in data set [4]; “significant killing” in data set [5] (A549, 96 hr treatment); “significant killing” in [6]. In addition, the “toxicity to human normal cells” value in data set [3] is given as “essentially no toxicity; also recorded: little toxicity”.
As for `Nc1cc(I)c(I)cc1N` [Compound C, 4,5-diiodo-1,2-phenylenediamine], in data set [1], the “cell survival rate (killing of cisplatin-resistant cancer cells)” value is on record as “significant killing”. The “cell survival rate (killing of cancer cells)” value is reported as “significant killing” in [2]; “significant killing” in [5] (A549, 72 hr treatment); “significant killing” in [6]. Besides, the “toxicity to human normal cells” value in data set [3] was “essentially no toxicity; also recorded: little toxicity”.
`O=c1[nH]c(=O)n([C@H]2C[C@H](O)[C@@H](CO)O2)cc1Br` [BrdU, bromodeoxyuridine]: the “DET reaction with weakly-bound electron ewb−” value in [7] is reported as “no DET reactions detected; also recorded: negligible; also recorded: no DET reaction”.
The term IC50 denotes the concentration that inhibits the measured activity by half. On to “cis-Pt(NH3)2Cl2 [cisplatin, reference compound]”, for which the IC50 in data set [3] (read-out: IC50 (cell survival rate 50% with respect to untreated cells), GM05757, 72-hr treatment) is ~10 µM.
As for `Nc1cc(Br)c(Br)cc1N` [Compound B, 4,5-dibromo-1,2-phenylenediamine], in data set [8], the “yield of DNA double-strand breaks (γ-H2AX intensity)” value is recorded as “significant amount of DNA DSBs”. Moreover, in [1], the “cell survival rate (killing of cisplatin-resistant cancer cells)” value is “significant killing”. The overall toxicity entry in data set [9] (7 mg/kg daily for 5 days, IP) is listed as “no overall drug toxicity”. Also, in [9] (setting [12]), the “electrolytes (Na, K, Cl)” value is reported as “no changes in electrolytes”. For the same molecule, in data set [9] (setting [12]), the “hepatotoxicity (ALT, ALP, total bilirubin)” value is “no hepatotoxicity”. In data set [9] (setting [12]), the “nephrotoxicity (blood urea, creatinine)” value is “no nephrotoxicity”. Moreover, the “cell survival rate (killing of cancer cells)” value is on record as “significant killing” in data set [2]; “significant killing” in data set [4]; “significant killing” in data set [5] (A549, 96 hr treatment); “significant killing” in data set [6]. Also, the “toxicity to human normal cells” value in [3] was “essentially no toxicity; also recorded: little toxicity”. Also, in data set [10] (ME-180, 0-200 μM), the “activation of caspase-3 and -7” value is reported as “significant activation”. The “population of apoptotic cells” value in data set [10] (ME-180, 200 μM) is listed as ≥ 60%. The “dissociative lifetime of NPB*−” value in data set [7] (ethanol) is ~6.0 ps. In addition, the “DET reaction with weakly-bound electron ewb−” value in data set [7] was “highly effective”. Besides, the “tumor growth vs control group” value in [11] was “significantly suppressed tumor growth”.
